Key:
Assay type in all cases: in vivo
[1] = tested on: tomato seeds; assay: Tomato seed pretreatment with ascr #18: germination/emergence and growth in soil
Experimental: Tomato seeds were pretreated 24 hours without (mock) or with different concentrations (1, 10, 100, 1000 and 10000 nM) of ascr #18 before planting on soil. The length of the plants was measured 12 days after planting. **P≤0.002; ****P≤0.00005; two-tailed t-test. FIGS. 4A-4F show the effect of ascr #18 on tomato seed germination/emergence and growth. Tomato seeds were pretreated 24 hours without (mock) or with different concentrations (10, 100, and 1000 nM) of ascr #18 before planting in soil. Seed germination/emergence from soil was measured after 4, 5, 6 and 7 days after planting (FIG. 4A). The length of plants was measured 12 and 14 days after planting (FIG. 4B). Pictures were taken 14 days after planting (FIG. 4C). **P≤0.002; ****P≤0.00005; two-tailed t-test. FIGS. 4D and 4E provide graphs of the fresh weight of above-ground (excluding root) part of the plants measured at day 21 after planting in soil for tomato seeds pretreated without (mock) or with different concentrations (0.1 and 10 μM) of ascr #18 for 24 hours (FIG. 4D) or 72 hours (FIG. 4E) before planting in soil. The length of the roots of the plants was also measured 21 days after planting (FIG. 4F). The effect of ascr #18 on was also determined on tomato plant growth. Tomato seeds were pretreated 24 hours without (mock) or with different concentrations (1, 10, 100, 1000 and 10000 nM) of ascr #18 before planting on soil. The length of the plants was measured 12 days after planting. […] Further studies on the effect of ascr #18 on tomato seed germination/emergence and growth. Tomato seeds were pretreated 24 hours without (mock) or with different concentrations (10, 100, and 1000 nM) of ascr #18 before planting in soil. Seed germination/emergence from soil was measured after 4, 5, 6 and 7 days after planting. […] The length of the plants was also measured 12 and 14 days after planting and pictures were taken 14 days after planting. […] In further experiments, tomato seeds were pretreated 24 or 72 hours without (mock) or with different concentrations (0.1 and 10 μM) of ascr #18 before planting in soil. More specifically, the tomato seeds were submerged in aqueous solutions of ascaroside for 24 hours or 72 hours directly before planting. Alternatively, seeds, (e.g., tomato seeds) can be coated with a solution of different concentrations of ascaroside containing polymeric binders commonly used for seed coating. Following treatment, the seeds can be dried and stored (e.g., for 2 weeks) before planting. The fresh weight of above-ground (excluding root) part of the plants was measured 21 days after planting. […] The length of the roots of the plants was also measured 21 days after planting.

[2] = tested on: Arabidopsis seeds; assay: Arabidopsis seed pretreatment with ascr #18: germination, growth and flowering
Experimental: Arabidopsis seeds were pretreated 24 hours without (mock) or with 1 μM ascr #18 before planting in soil. FIG. 5A provides a graph of the number of plants at different stages of germination counted 3 days after planting. Stages of germination; 0=no germination; 1=about to germinate; 2=germinated and two-leaf stage; 3=germinated and have expanded leaves (n=60). FIG. 5B provides graphs of the surface area of germinated plants measured by taking pictures and counting pixels using Fiji software and then normalizing by the total area for each plant (n=15 pots with each pot containing 4 plants). FIG. 5C provides a graph of the percent of plants flowering at day 25 after planting in soil. FIG. 5D provides a graph of the fresh weight of above-ground (excluding root) part of the plants measured at day 25 after planting in soil. *P=0.03; **P≤0.01; ***P≤0.001; ****P≤0.0001; two-tailed t-test. The effects of ascr #18 on Arabidopsis were also studied. Arabidopsis seeds were pretreated 24 hours without (mock) or with 1 μM ascr #18 for ascr #18 before planting in soil. The number of plants at different stages of germination were counted 3 days after planting. […] Additionally, the surface area of germinated plants was measured by taking pictures and counting pixels using Fiji software. The data was then normalized by the total area for each plant. […] The percentage of plants flowering at day 25 after planting in soil was also determined. […] The fresh weight of above-ground (excluding root) part of the plants was also measured 25 days after planting.

[3] = tested on: corn seeds; assay: Corn seed pretreatment with ascr #18: germination/emergence and growth in soil
Experimental: FIGS. 8A-8B show the effect of ascr #18 on corn seed germination/emergence and growth. Corn seeds were pretreated 24 hours without (mock) or with different concentrations (10, 100 and 1000 nM) of ascr #18 before planting in soil. Seed germination/emergence from soil was measured after 4, 5, 6, 7, 8, 9, 10 and 11 days after planting (FIG. 8A). The height of the second node of the plants was measured 15 days after planting (FIG. 8B). Data are averages±s.d. (n≥12). *P≤0.05; two-tailed t-test. The effect of ascr #18 on corn seed germination/emergence and growth was also studied. Corn seeds were pretreated 24 hours without (mock) or with different concentrations (10, 100 and 1000 nM) of ascr #18 before planting in soil. Seed germination/emergence from soil was measured after 4, 5, 6, 7, 8, 9, 10 and 11 days after planting. […] The height of the second node of the plants was also measured 15 days after planting.

[4] = tested on: rice seeds; assay: Rice seed pretreatment with ascr #18: germination/emergence and growth in soil
Experimental: FIGS. 1A-1D show the effect of ascr #18 on rice seed germination/emergence and growth. Rice seeds were pretreated 24 hours without (mock) or with different concentrations (10, 100 and 1000 nM) of ascr #18 before planting in soil. Seed germination/emergence from soil was measured after 7, 8, 9, 10 and 11 days after planting (FIG. 1A). The length of the plants was measured 15 days after planting (FIG. 1B) and 18 days after planting (FIG. 1C). Pictures were taken 15 days after planting (FIG. 1D). Data are averages±s.d. (n≥12). ***P≤0.0005; ****P≤0.00005; two-tailed t-test.
FIGS. 2A-2C show the effect of ascr #18 on rice seed germination/emergence and growth. Rice seeds were pretreated 24 hours without (mock) or with different concentrations (10, 100 and 1000 nM) of ascr #18 before planting in soil. Seed germination/emergence from soil was measured after 6, 7, 8, 9 and 10 days after planting (FIG. 2A). The length of the plants was measured 10, 12, 14, 15 and 18 days after planting (FIG. 2B). The fresh biomass of the plants was measured 18 days after planting (FIG. 2C). Data are averages±s.d. (n≥14). *P≤0.05; **P≤0.005; ***P≤0.0005; ****P≤0.00005; two-tailed t-test.
The effect of ascr #18 on rice seed germination/emergence and growth was tested. Briefly, rice seeds were pretreated 24 hours without (mock) or with different concentrations (10, 100 and 1000 nM) of ascr #18 before planting in soil. Seed germination/emergence from soil was measured after 7, 8, 9, 10 and 11 days after planting. […] The length of plants was also measured 15 days and 18 days after planting and pictures were taken at 15 days after planting.
Further studies of the effect of ascr #18 on rice seed germination/emergence and growth were performed. Rice seeds were pretreated 24 hours without (mock) or with different concentrations (10, 100 and 1000 nM) of ascr #18 before planting in soil. Seed germination/emergence from soil was measured after 6, 7, 8, 9 and 10 days after planting. […] The length of plants was also measured at 10, 12, 14, 15 and 18 days after planting. […] The fresh biomass of plants was also measured 18 days after planting.

[5] = tested on: wheat seeds; assay: Wheat seed pretreatment with ascr #18: germination/emergence and growth in soil; details: wheat seeds pretreated 24 hours with 10, 100, 1000 nM vs mock; 10 days after planting (FIG. 9B)
Experimental: FIGS. 9A-9B show the effect of ascr #18 on wheat seed germination/emergence and growth. Wheat seeds were pretreated 24 hours without (mock) or with different concentrations (10, 100 and 1000 nM) of ascr #18 before planting in soil. Seed germination/emergence from soil was measured after 2, 3, 4, 5, 6, 7, 8, 9 and 10 days after planting (FIG. 9A). The height of the second node of the plants was measured […] after planting (FIG. 9B). Data are averages±s.d. (n≥12). *P≤0.05; two-tailed t-test. The effect of ascr #18 on wheat seed germination/emergence and growth was also studied. Wheat seeds were pretreated 24 hours without (mock) or with different concentrations (10, 100 and 1000 nM) of ascr #18 before planting in soil. Seed germination/emergence from soil was measured after 2, 3, 4, 5, 6, 7, 8, 9 and 10 days after planting (FIG. 9A). The height of the second node of the plants was also measured 10 days after planting.

[6] = tested on: potato plants; assay: Spray treatment of four-week old potato plants with ascr #18: growth and tuber yield
Experimental: FIGS. 6A-6B show the effects of ascr #18 on potato plants. Four-week old potato plants were pretreated without (mock) or with ascr #18 (10 nM). Potato tubers were harvested from mock and pre-treated plants. FIG. 6A provides images of tubers from one representative plant that was mock treated and one representative plant that was treated with ascr #18. FIG. 6B provides a graph of the biomass of the above-ground (excluding root) part of the potato plants. FIGS. 7A-7E show the effect of ascr #18 on potato plant growth and yield. Four-week old potato plants were sprayed once with buffer only (mock) or 10 nM ascr #18 before harvesting two weeks later. […] Potato root system (7C) and tubers (7D) harvest from treated and mock plants are presented. Each pile of tubers was from one plant. FIG. 7E presents the tuber biomass of the mock and treated plants at harvest. The effects of ascr #18 on potato were also studied. Four week old potato plants were pretreated (sprat treatment) without (mock) or with ascr #18 (10 nM). Potato tubers were harvested from mock and pre-treated plants. Each pile of tubers in FIG. 6A were from one plant. […] The above-ground (excluding root) part of the potato plants was also measured.

## CC1O[C@@H](O[C@@H](C)CCCCCCCCC(=O)O)C(O)C[C@H]1O (stereo in doubt) [ascr #18, (10R)-(3′R,5′R-dihydroxy-6′S-methyl-(2H)-tetrahydropyran-2-yloxy)-undecanoic Acid]
[1]; tomato seeds pretreated 24 or 72 hours with 0.1 and 10 μM vs mock, 21 days after planting (FIGS. 4D-4E), particularly with longer pretreatment
  Fresh weight of above-ground (excluding root) part of the plants: greater weight
[1]; tomato seeds pretreated 24 hours with 10, 100, 1000 nM vs mock, 4-7 days after planting (FIG. 4A)
  Seed germination/emergence from soil: faster germination/emergence rate
[1]; tomato, 0.1 and 10 μM vs mock, 21 days after planting (FIG. 4F)
  Length of the roots of the plants: longer roots
[1]; tomato, 10, 100, 1000 nM for 24 hours, 12 and 14 days after planting (FIGS. 4B-4C)
  Length of the plants: taller
[1]; tomato, seed treatment 100 nM or 1000 nM vs untreated or 10 nM, 12 days after planting (FIG. 3)
  Length of the plants: taller
[2]; Arabidopsis seeds pretreated 24 hours with 1 μM vs mock, 3 days after planting (FIG. 5A)
  Number of plants at different stages of germination: faster germination/emergence rate
[2]; Arabidopsis, 1 μM vs mock, 25 days after planting (FIG. 5D)
  Fresh weight of above-ground (excluding root) part of the plants: greater weight
[2]; Arabidopsis, 1 μM vs mock, day 25 after planting in soil (FIG. 5C)
  Percentage of plants flowering: greater plant flowering
[2]; Arabidopsis, 1 μM vs mock, pixel counting with Fiji software, normalized (FIG. 5B)
  Surface area of germinated plants: greater plant surface area
[3]; corn seeds pretreated 24 hours with 10, 100, 1000 nM vs mock, 4-11 days after planting (FIG. 8A)
  Seed germination/emergence from soil: faster germination/emergence rate
[3]; corn, 10, 100, 1000 nM vs mock, 15 days after planting (FIG. 8B)
  Height of the second node of the plants: taller
[4]; rice seeds pretreated 24 hours with 10, 100, 1000 nM vs mock, 7-11 days after planting (FIG. 1A)
  Seed germination/emergence from soil: faster germination/emergence rate
[4]; rice, further study, 10, 100, 1000 nM for 24 hours vs mock, 6-10 days after planting (FIG. 2A)
  Seed germination/emergence from soil: faster germination/emergence rate
[4]; rice, further study, 10, 100, 1000 nM, 10, 12, 14, 15 and 18 days after planting (FIG. 2B)
  Length of plants: faster growth
[4]; rice, further study, 10, 100, 1000 nM, 18 days after planting (FIG. 2C)
  Fresh biomass of plants: greater biomass
[4]; rice, seed treatment 100 nM or 1000 nM vs untreated or 10 nM, 15 and 18 days after planting (FIGS. 1B-1D)
  Length of plants: taller
[5]
  Height of the second node of the plants: taller
[6]; four-week old potato plants sprayed once with 10 nM vs mock, harvest two weeks later (FIG. 6B, FIGS. 7A-7E)
  Biomass of the potato plants (above-ground part, tubers): greater biomass
[6]; four-week old potato plants sprayed with 10 nM vs mock (FIG. 6A)
  Potato tubers harvested: significantly more potato tubers
